Experimental data from patent publication US20220227765A1, “PYRIDO-INDOLE ANALOGUES AS GPX4 INHIBITORS” (Ferro Therapeutics, Inc., priority 2019, published 2022).
Like-named read-outs stand apart in the source and are kept apart here.

What was measured:
Format in all cases: cell-based, human
786-O = assay: Cell proliferation (Alamar Blue) assay, 786-O
Protocol: (§1) Cell viability assay was performed to assess the potency of the compounds in human cancer cell lines 786-0 (renal cell carcinoma) and SJSA-1 (osteosarcoma). Additional cell lines, such as pancreatic cancer cell lines (Panc 02.13, BxPC-3, Panc 12, Panc 02.03, Panc 6.03, PSN-1, HPAC, and Capan-1), prostate cancer cell lines (PC-3, DU145, 22Rv1, NCI-H660, BPH1, LNCaP, BM-1604, and MDA PCa 2b), etc., can be tested in a similar method.
(§2) Cells (SJSA-1, 786-0 and A431) were seeded (5000 cells/100 μL/well) in 96-well tissue culture plate and incubated at 37° C./5% CO2 for 16-24 hours. The cells were then treated with compounds (25 μL of 5×). The compound concentrations were 10-0.0005 μM prepared in 3-fold serial dilutions with final DMSO concentration of 1%. The plates were then incubated for 24 h at 37° C./5% CO2 in a moist environment. Then Alamar Blue™ reagent (final concentration 1×-12.5 μL) was added to each well and incubated for 1.5 hours at 37° C./5% CO2. The plates were read on fluorescence reader at 540 nm excitation and 590 nm emission wavelengths. The IC50 values were subsequently determined using a sigmoidal dose-response curve (variable slope) in GraphPad Prism® 5 software. Table A-3, Table B-3 and Table C-3 show cell proliferation data for certain compounds as described herein.

A431 = assay: Cell proliferation (Alamar Blue) assay, A431
Protocol: as §1, §2

SJSA-1 = assay: Cell proliferation (Alamar Blue) assay, SJSA-1
Protocol: as §1, §2

[1] = Homo sapiens, 786-0, 24 h, Table B-3, 786-O cells
[2] = Homo sapiens, A-431, 24 h, Table B-3, A431 cells
[3] = Homo sapiens, SJSA-1, 24 h, Table B-3, head prints SJSB-1, 24 h, read-out: IC50 (μM) SJSB-1
[4] = Table B-3, head prints SJSB-1, 24 h, read-out: IC50 (μM) SJSB-1
[5] = Homo sapiens, 786-0, 24 h, Table C-3, 786-O cells
[6] = Homo sapiens, A-431, 24 h, Table C-3, A431 cells
[7] = Homo sapiens, SJSA-1, 24 h, Table C-3, SJSA-1 cells, 24 h, read-out: IC50 (μM) SJSA-1

Row | SMILES | IC50 (786-O; [1]) | IC50 (A431; [2]) | IC50 (SJSA-1; [3]) | also measured
1 | C#CC(=O)N1[C@@H](CCCC)Cc2c([nH]c3c(F)cc(F)cc23)[C@@H]1c1ccc(NC23CC4CC(CC(C4)C2)C3)cc1 [Compound B-65] | 0.015 µM | 3.53 µM | 0.016 µM | –
2 | C#CC(=O)N1[C@@H](CCCC)Cc2c([nH]c3c(F)cc(F)cc23)[C@@H]1CCCC [Compound B-74] | 0.05 µM | 4.4 µM | 0.04 µM | –
3 | CCCC[C@H]1Cc2c([nH]c3c(F)cc(F)cc23)[C@H](C23CC(N)(C2)C3)N1C(=O)CCl [Compound B-83] | 0.12 µM | > 10 µM | 0.12 µM | –
4 | C#CC(=O)N1[C@@H](CCCC)Cc2c([nH]c3c(F)cc(F)cc23)[C@@H]1C1CCN(C(=O)OC)CC1 [Compound B-75] | – | – | – | IC50 (786-O; Table B-3, 786-O cells, 24 h): 0.03 µM; IC50 (SJSA-1; [4]): 0.06 µM
5 | CCCC[C@H]1Cc2c([nH]c3ccccc23)[C@](C)(c2ccc(F)cc2)N1C(=O)CCl [Compound C-14] | – | – | – | IC50 (786-O; [5]): 0.017 µM; IC50 (A431; [6]): > 10 µM; IC50 (SJSA-1; [7]): 0.017 µM
6 | C#CC(=O)N1[C@@H](CCCC)Cc2c([nH]c3c(F)cc(F)cc23)[C@@H]1C1CCC(O)CC1 (some centres unmarked) [Compound B-77] | 0.166 µM | 6.57 µM | 0.16 µM | –
7 | C#CC(=O)N1[C@@H](CCCC)Cc2c([nH]c3c(F)cc(F)cc23)[C@@H]1c1ccc(N2CCN(C)CC2)cc1 [Compound B-57] | 0.059 µM | > 10 µM | 0.063 µM | –
8 | C#CC(=O)N1[C@@H](CCCC)Cc2c([nH]c3c(F)cc(F)cc23)[C@@H]1c1ccc(NC(=O)CCCCC(=O)O)cc1 [Compound B-87] | > 10 µM | > 10 µM | > 10 µM | –
9 | C#CC(=O)N1[C@@H](C)Cc2c([nH]c3ccccc23)[C@]1(C)c1ccc(F)cc1 [Compound C-37] | – | – | – | IC50 (786-O; [5]): 0.017 µM; IC50 (A431; [6]): > 10 µM; IC50 (SJSA-1; [7]): 0.054 µM
10 | C#CC(=O)N1[C@@H](CCCC)Cc2c([nH]c3c(F)cc(F)cc23)[C@@H]1CCCC [Compound C-4] | – | – | – | IC50 (786-O; [5]): 0.048 µM; IC50 (A431; [6]): 4.4 µM; IC50 (SJSA-1; [7]): 0.045 µM
11 | C#CC(=O)N1[C@@H](CCCC)Cc2c([nH]c3c(F)cc(F)cc23)[C@@H]1c1ccc(N2CCC2)c(C#N)c1 [Compound B-60] | 0.31 µM | > 10 µM | 0.706 µM | –
12 | C#CC(=O)N1[C@@H](CCCC)Cc2c([nH]c3ccccc23)[C@@H]1c1ccc(NC23CC4CC(CC(C4)C2)C3)cc1 [Compound B-18] | 0.005 µM | – | 0.006 µM | IC50 (A431; Table B-3, A431 cells, 24 h): 7.8 µM
13 | C#CC(=O)N1[C@@H](CCC)Cc2c([nH]c3ccccc23)[C@@H]1c1ccc(NC23CC4CC5CC(C2)C54C3)cc1 (some centres unmarked) [Compound B-67] | 0.006 µM | 2 µM | 0.0025 µM | –
14 | C#CC(=O)N1[C@@H](CCCC)Cc2c([nH]c3ccccc23)[C@@H]1CCCCC [Compound B-92] | 0.137 µM | > 10 µM | 0.17 µM | –
15 | C#CC(=O)N1CCc2c([nH]c3ccccc23)C1(C)c1ccc(F)cc1 (centres unmarked) [Compound C-19] | – | – | – | IC50 (786-O; [5]): 2.32 µM; IC50 (SJSA-1; [7]): 1.89 µM
16 | C#CC(=O)N1[C@@H](CCCC)Cc2c([nH]c3ccccc23)[C@@H]1c1ccc(-c2nc(C)no2)cc1 [Compound B-2, 1-((1S,3S)-3-butyl-1-(4-(3-methyl-1,2,4-oxadiazol-5-yl)phenyl)-1,3,4,9-tetrahydro-2H-pyrido[3,4-b]indol-2-yl)prop-2-yn-1-one] | 0.006 µM | 3.2 µM | 0.014 µM | –
17 | C#CC(=O)N1[C@@H](CC)Cc2c([nH]c3c(F)cc(F)cc23)[C@@H]1c1ccc(F)cc1 [Compound B-61] | 0.062 µM | > 10 µM | 0.068 µM | –
18 | C#CC(=O)N1[C@@H](CCCC)Cc2c([nH]c3ccccc23)[C@@H]1c1ccc(N2C3CCC2COC3)cc1 [Compound B-66, 1-((1 S,3 S)-1-(4-(3-oxa-8-azabicyclo[3.2.1]octan-8-yl)phenyl)-3-butyl-1,3,4,9-tetrahydro-2H-pyrido[3,4-b]indol-2-yl)prop-2-yn-1-one] | – | 4.35 µM | – | –
19 | C#CC(=O)N1[C@@H](CCCC)Cc2c([nH]c3ccccc23)[C@@H]1CCCCCC [Compound B-93] | 0.091 µM | > 10 µM | 0.077 µM | –

Row | SMILES | IC50 (786-O; [1]) | IC50 (A431; [2]) | IC50 (SJSA-1; [3]) | also measured
20 | C#CC(=O)N1[C@@H](CCCC)Cc2c(sc3ccccc23)[C@@H]1c1ccc(NC(=O)OCCCCC)cc1 [Compound B-100] | 0.0285 µM | 7.84 µM | 0.04 µM | –
21 | C#CC(=O)N1[C@@H](CCCC)Cc2c([nH]c3ccc(F)cc23)[C@@H]1c1ccc(C(=O)NCCOC)cc1 [Compound B-11] | 0.008 µM | 4.3 µM | 0.025 µM | –
22 | C#CC(=O)N1[C@@H](c2ccc(NC34CC5CC(CC(C5)C3)C4)cc2)c2[nH]c3ccccc3c2C[C@@H]1C(=O)OC [Compound B-6, methyl (1S,3R)-1-(4-(((3R,5R,7R)-adamantan-1-yl)amino)phenyl)-2-propioloyl-2,3,4,9-tetrahydro-1H-pyrido[3,4-b]indole-3-carboxylate] | 0.024 µM | 6.1 µM | 0.024 µM | –
23 | C#CC(=O)N1[C@@H](CCCC)Cc2c([nH]c3c(F)cc(F)cc23)[C@@H]1c1ccc(N2CCC2)cc1 [Compound B-59] | 0.011 µM | > 10 µM | 0.016 µM | –
24 | C#CC(=O)N1[C@@H](CCCC)Cc2c([nH]c3c(F)cc(F)cc23)[C@@H]1CC(C)C [Compound B-82] | 0.2 µM | > 10 µM | 0.16 µM | –
25 | C#CC(=O)N1[C@@H](CCCC)Cc2c([nH]c3c(F)cc(F)cc23)[C@@H]1c1ccc(NC(=O)OCCCC(=O)O)cc1 [Compound B-86] | 0.227 µM | > 10 µM | 0.239 µM | –
26 | CCCC[C@H]1Cc2c([nH]c3ccccc23)[C@H](c2ccc(NC(=O)c3ccncc3)cc2)N1C(=O)CCl [Compound B-14] | 0.015 µM | 3 µM | 0.019 µM | –
27 | C#CC(=O)N1[C@@H](CCCC)Cc2c([nH]c3c(F)cc(F)cc23)[C@@H]1c1ccc(NC(=O)OCCCCC)cc1 [Compound B-91] | – | – | – | IC50 (786-O; Table B-3, 786-O cells, 24 h): 0.076 µM; IC50 (SJSA-1; [4]): 0.075 µM
28 | CC1(c2ccc(F)cc2)c2[nH]c3ccccc3c2CCN1C(=O)CCl (centres unmarked) [Compound C-20] | – | – | – | IC50 (786-O; [5]): 4.49 µM; IC50 (SJSA-1; [7]): 3.98 µM
29 | C[C@H]1Cc2c([nH]c3ccccc23)[C@](C)(c2ccc(F)cc2)N1C(=O)CCl [Compound C-18] | – | – | – | IC50 (786-O; [5]): 0.437 µM; IC50 (SJSA-1; [7]): 0.332 µM
30 | C#CC(=O)N1[C@@H](CCCC)Cc2c([nH]c3c(F)cc(F)cc23)[C@@H]1C12CC(NC(=O)OCCCCC)(C1)C2 [Compound B-84] | 0.086 µM | – | 0.084 µM | –
31 | C#CC(=O)N1[C@@H](CCCC)Cc2c(n(CC(O)CO)c3c(F)cc(F)cc23)[C@@H]1c1ccc(NC(=O)OCCCCC)cc1 (some centres unmarked) [Compound B-98] | 0.181 µM | > 10 µM | – | –
32 | C#CC(=O)N1[C@@H](CCCC)Cc2c(oc3ccccc23)[C@@H]1c1ccc(NC(=O)OCCCCC)cc1 [Compound B-101] | 0.155 µM | 7.97 µM | – | –
33 | COC(=O)[C@H]1Cc2c([nH]c3ccccc23)[C@H](c2ccc(N(C(=O)CCCC[C@@H]3SC[C@@H]4NC(=O)N[C@@H]43)C3CC3)cc2)N1C(=O)CCl [Compound B-8, methyl (1S,3R)-2-(2-chloroacetyl)-1-(4-(N-cyclopropyl-5-((3aS,4S,6aR)-2-oxohexahydro-1H-thieno[3,4-d]imidazol-4-yl)pentanamido)phenyl)-2,3,4,9-tetrahydro-1H-pyrido[3,4-b]indole-3-carboxylate] | 1.7 µM | – | 1.9 µM | –
34 | C#CC(=O)N1[C@@H](CCCC)Cc2c([nH]c3ccccc23)[C@@H]1c1ccc(NC23CC4CC(CC(O)(C4)C2)C3)cc1 [Compound B-44] | 0.006 µM | – | 0.014 µM | –
35 | C#CC(=O)N1[C@@H](CCCC)Cc2cc(OC)ccc2[C@@]1(C)c1ccc(NC23CC4CC(CC(C4)C2)C3)cc1 [Compound C-36] | – | – | – | IC50 (786-O; [5]): 0.69 µM; IC50 (A431; [6]): > 10 µM
36 | C#CC(=O)N1[C@@H](CCCC)Cc2cc(OC)ccc2[C@]1(C)c1ccc(NC23CC4CC(CC(C4)C2)C3)cc1 [Compound C-35] | – | – | – | IC50 (786-O; [5]): 0.45 µM; IC50 (A431; [6]): > 10 µM
37 | C#CC(=O)N1[C@@H](CCCC)Cc2c(n(C)c3c(F)cc(F)cc23)[C@@H]1c1ccc(NC(=O)OCCCCC)cc1 [Compound B-96] | 0.08 µM | – | 0.293 µM | –
38 | COC(=O)[C@H]1Cc2c([nH]c3ccccc23)[C@@H](c2ccc(N(C(=O)CCCC[C@@H]3SC[C@@H]4NC(=O)N[C@@H]43)C3CC3)cc2)N1C(=O)CCl [Compound B-9, methyl (1R,3R)-2-(2-chloroacetyl)-1-(4-(N-cyclopropyl-5-((3aS,4S,6aR)-2-oxohexahydro-1H-thieno[3,4-d]imidazol-4-yl)pentanamido)phenyl)-2,3,4,9-tetrahydro-1H-pyrido[3,4-b]indole-3-carboxylate] | > 10 µM | – | > 10 µM | –
